# Measurements published in patent US7056928B2, “Pyrimidine derivatives as selective inhibitors of COX-2” (Glaxo Group Limited, priority 2001, dated 2006).
# Legend:
# [1] = molecular target: T1, microsomal h-COX2 (Homo sapiens, UniProt P35354); test: Microsomal assay, inhibition of h-COX2; assay type: biochemical; details: microsomal preparation from baculovirus infected SF9 cells; PGE2 by EIA; read-out: COX-2: IC50
# T1 construct: made in house; host or cells: baculovirus infected SF9 cells (microsomal preparation)
# T1 sequence (P35354 18-604): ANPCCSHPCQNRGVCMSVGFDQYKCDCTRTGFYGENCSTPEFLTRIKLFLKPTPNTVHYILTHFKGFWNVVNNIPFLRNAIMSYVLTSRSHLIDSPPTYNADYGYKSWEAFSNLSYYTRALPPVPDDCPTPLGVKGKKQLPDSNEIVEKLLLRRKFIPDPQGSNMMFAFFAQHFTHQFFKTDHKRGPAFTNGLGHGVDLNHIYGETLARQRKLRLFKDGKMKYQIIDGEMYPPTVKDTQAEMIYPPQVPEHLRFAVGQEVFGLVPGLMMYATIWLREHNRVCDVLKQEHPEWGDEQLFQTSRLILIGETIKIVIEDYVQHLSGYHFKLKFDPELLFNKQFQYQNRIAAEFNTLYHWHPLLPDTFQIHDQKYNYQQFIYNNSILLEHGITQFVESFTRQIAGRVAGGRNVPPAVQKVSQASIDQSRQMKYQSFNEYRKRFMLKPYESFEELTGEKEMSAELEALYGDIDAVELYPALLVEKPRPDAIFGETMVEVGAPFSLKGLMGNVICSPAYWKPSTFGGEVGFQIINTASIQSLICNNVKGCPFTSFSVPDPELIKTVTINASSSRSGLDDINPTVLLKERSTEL
# Description: (§1) Inhibitory activity against microsomal h-COX2 was assessed against a microsomal preparation from baculovirus infected SF9 cells. An aliquot of microsomal preparation was thawed slowly on ice and a 1/40,000 dilution prepared from it into the assay buffer (sterile water, degassed with argon containing 100 mM HEPES (pH 7.4), 10 mM EDTA (pH7.4), 1 mM phenol, 1 mM reduced glutathione, 20 mg/ml gelatin and 0.001 mM Hematin). Once diluted the enzyme solution was then sonicated for 5 seconds (Branson sonicator, setting 4, 1 cm tip) to ensure a homogeneous suspension. 155 μl enzyme solution was then added to each well of a 96-well microtitre plate containing either […] test compound (40×required test concentration) or 5 μl DMSO for controls. Plates were then mixed and incubated at room temperature for 1 hour. Following the incubation period, 40 μl of 0.5 μM arachidonic acid was added to each well to give a final concentration of 0.1 μM. Plates were then mixed and incubated for exactly 10 minutes (room temperature) prior to addition of 25 μl 1M HCl (hydrochloric acid) to each well to stop the reaction. 25 μl of 1M NaOH (sodium hydroxide) was then added to each well to neutralise the solution prior to determination of PGE2 levels by enzyme immunoassay (EIA).
# (§2) The following IC50 value for inhibition of COX-2 and COX-1 were obtained from the microsomal assay for compounds of the invention: […]
# [2] = molecular target: COX-1 (Homo sapiens, UniProt P23219); test: Microsomal assay, inhibition of COX-1; assay type: biochemical
# Description: as §1, §2
# COX-1, sequence (P23219 24-599): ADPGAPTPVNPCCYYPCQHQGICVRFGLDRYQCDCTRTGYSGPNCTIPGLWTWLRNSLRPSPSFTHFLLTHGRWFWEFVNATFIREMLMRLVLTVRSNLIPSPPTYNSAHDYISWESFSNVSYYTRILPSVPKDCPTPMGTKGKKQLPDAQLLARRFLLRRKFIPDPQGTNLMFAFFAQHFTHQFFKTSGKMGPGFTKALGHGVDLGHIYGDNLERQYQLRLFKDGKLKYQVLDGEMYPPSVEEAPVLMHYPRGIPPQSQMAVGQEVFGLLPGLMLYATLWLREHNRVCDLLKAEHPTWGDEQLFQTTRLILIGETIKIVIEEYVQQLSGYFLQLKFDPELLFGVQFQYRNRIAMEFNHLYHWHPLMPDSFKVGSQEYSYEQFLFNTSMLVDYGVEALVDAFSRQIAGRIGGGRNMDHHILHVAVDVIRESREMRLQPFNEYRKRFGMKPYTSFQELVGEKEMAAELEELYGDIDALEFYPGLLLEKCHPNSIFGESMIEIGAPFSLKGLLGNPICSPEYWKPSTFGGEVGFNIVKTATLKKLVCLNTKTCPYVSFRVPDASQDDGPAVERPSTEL
compound,measurement,setting,value
"CS(=O)(=O)c1ccc(-c2cc(CF)nc(NCc3ccccc3)n2)cc1 [Example 1, 4-[4-(Methylsulfonyl)phenyl]-N-(Phenylmethyl)-6(fluoromethyl)pyrimidin-2-amine]",IC50,[1],0.022 µM
same,IC50,[2],17.7 µM
